Laboratory results reported in patent publication US20250041438A1, “ANTIBODY-DRUG CONJUGATE” (NOVELTY NOBILITY INC., priority 2022, published 2025).

Tests used:
GIST-T1 cells = assay type: in vivo; settings: imatinib 100 mg/kg p.o. D0-D29
Kasumi-1 cells = test: In vivo efficacy against AML, Kasumi-1 xenograft model; set-up: species or system mice; settings: day 17; imatinib 100 mg/kg p.o.
Procedure: The experiment was performed in the same manner as in Example 5, except that Kasumi-1 cells (3×10^6/100 […]/head/serum free, RPMI1640 medium) in 50% Matrigel (Corning, 354248, NY, USA) were used. The mice were enrolled in this study on day 29 after transplantation, and the average tumor volume was about 170 mm^3 (day 0).

GIST-430/654 cells = test: In vivo efficacy against imatinib-resistant GIST, GIST-430/654 cell xenograft model; set-up: species or system mice; settings: day 49; imatinib 100 mg/kg p.o.
SCLC-H526 cells = test: In vivo efficacy against SCLC, SCLC-H526 xenograft model; set-up: species or system mice; settings: day 21; imatinib 100 mg/kg p.o.
Procedure: In order to evaluate the efficacy of ADC substances against SCLC, an experiment was performed. The SCLC-H526 (NCI-H526, stage E, carcinoma; variant small cell lung cancer, c-Kit overexpression) xenograft model was used.

HMC 1.2 cells = test: In vivo efficacy against mast cell tumor, HMC 1.2 xenograft model; set-up: species or system mice; settings: day 17; imatinib 100 mg/kg p.o.

Cc1ccc(NC(=O)c2ccc(CN3CCN(C)CC3)cc2)cc1Nc1nccc(-c2cccnc2)n1 [imatinib, reference compound]
tumor weight after sacrifice, decrease compared to the control (vehicle) (GIST-T1 cells): about 59%
tumor growth inhibition compared to the control (vehicle), in words (Kasumi-1 cells): little inhibition of tumor growth
tumor growth inhibition compared to the control (vehicle), in words (GIST-430/654 cells): little inhibition of tumor growth
tumor growth inhibition compared to the control (vehicle), in words (SCLC-H526 cells): little inhibition of tumor growth
tumor growth inhibition, in words (HMC 1.2 cells): little inhibition of tumor growth
